One test concerns the target T1, Flt-3 kinase (Homo sapiens, UniProt P36888).
T1 sequence (P36888 27-993): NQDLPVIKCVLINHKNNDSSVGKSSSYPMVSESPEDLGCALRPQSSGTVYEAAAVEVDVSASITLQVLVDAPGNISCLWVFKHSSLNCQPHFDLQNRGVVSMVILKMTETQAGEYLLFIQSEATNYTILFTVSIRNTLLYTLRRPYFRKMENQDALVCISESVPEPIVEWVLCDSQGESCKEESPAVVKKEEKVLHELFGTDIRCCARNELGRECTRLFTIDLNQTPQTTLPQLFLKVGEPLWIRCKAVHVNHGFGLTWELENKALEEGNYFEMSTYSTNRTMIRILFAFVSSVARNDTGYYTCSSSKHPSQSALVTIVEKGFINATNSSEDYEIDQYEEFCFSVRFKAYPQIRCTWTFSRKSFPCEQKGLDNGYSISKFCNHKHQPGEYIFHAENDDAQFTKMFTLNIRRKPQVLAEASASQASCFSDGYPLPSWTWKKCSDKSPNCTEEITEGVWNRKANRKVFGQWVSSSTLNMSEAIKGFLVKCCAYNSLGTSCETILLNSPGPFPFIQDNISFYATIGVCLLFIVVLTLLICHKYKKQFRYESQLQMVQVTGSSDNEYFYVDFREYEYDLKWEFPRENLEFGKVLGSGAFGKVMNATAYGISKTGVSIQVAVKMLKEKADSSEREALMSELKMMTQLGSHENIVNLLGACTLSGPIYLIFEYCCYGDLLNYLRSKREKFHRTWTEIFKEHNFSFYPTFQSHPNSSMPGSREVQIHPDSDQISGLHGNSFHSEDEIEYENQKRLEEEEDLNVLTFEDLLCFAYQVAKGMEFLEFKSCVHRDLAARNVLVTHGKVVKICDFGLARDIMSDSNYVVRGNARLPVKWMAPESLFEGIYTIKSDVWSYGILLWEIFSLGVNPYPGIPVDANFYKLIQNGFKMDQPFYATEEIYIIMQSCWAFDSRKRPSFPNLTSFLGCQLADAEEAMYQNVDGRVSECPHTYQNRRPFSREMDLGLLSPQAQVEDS
The test can be described thus: Flt-3 kinase biochemical activity assay (AlphaScreen). The conditions noted are these: 100 μM ATP; read-out: Biochemical Inhibition IC50 Flt3. As to the method:
In one assay the biochemical activity IC50 values are determined with respect to inhibition of Flt-3 kinase activity, where inhibition of phosphorylation of a peptide substrate is measured as a function of compound concentration. Compounds to be tested, dissolved in DMSO (1 μL), are added to a white 384-well plate (Costar #3705). Working stocks of Flt-3 kinase (Invitrogen), biotin-(E4Y)10 substrate (Upstate Biotech, Cat#12-440), and ATP (Sigma, Cat#A-3377) are prepared in 25 mM Hepes pH 7.5, 5 mM MgCl2, 5 mM MnCl2, 1 mM DTT, and 0.01% Tween-20. All components are added to the 384-well plate for a final concentration of 1 ng/well Flt-3, 30 nM biotin-(E4Y)10 and 100 μM ATP in a volume of 20 μL. Each sample is at 5% DMSO. The plate is then incubated for 1 hour at room temperature. Just before use, working stocks of donor and acceptor beads from the AlphaScreen PY20 Detection Kit (PerkinElmer, Cat#676601M) are prepared in 25 mM Hepes pH 7.5, pH 7.4, 100 mM EDTA. 0.3% BSA. To stop the reaction, the plate is uncovered in the dark and 5 μL of Donor Beads solution (Streptavidin beads) is added to each well. The plate is incubated at room temperature for 20 minutes. Five microliters of Acceptor Beads solution (PY20 coated beads) are then added to each well. The final concentration of each bead is 10 μg/mL. The plates are incubated at room temperature for 60 minutes. Fluorescence signal is recorded on the Envision reader. Phosphorylated substrate results in binding of the PY20 antibody and association of the donor and acceptor beads such that signal correlates with kinase activity. The signal vs. compound concentration is used to determine the IC50.

The target of a further test is TrkA kinase (Homo sapiens, UniProt P04629). Nature of the test: TrkA kinase biochemical activity assay (AlphaScreen). As to conditions: 100 μM ATP; read-out: Biochemical Inhibition IC50 TrkA. In short, it runs like this: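 Recombinant TrkA with 30 nM biotin-(E4Y)10 and 100 μM ATP in 25 mM Hepes pH 7.5, 10 mM MnCl2, 5% DMSO, 40 min at room temperature. Phosphorylation read by AlphaScreen (streptavidin donor, PY20 acceptor beads); IC50 from signal vs compound concentration. TrkC run similarly.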
(In general: Bead proximity is the source of the signal in Alpha formats.)

In general, IC50 refers to the concentration needed to halve the response being measured.

TrkA kinase, sequence (P04629 33-796): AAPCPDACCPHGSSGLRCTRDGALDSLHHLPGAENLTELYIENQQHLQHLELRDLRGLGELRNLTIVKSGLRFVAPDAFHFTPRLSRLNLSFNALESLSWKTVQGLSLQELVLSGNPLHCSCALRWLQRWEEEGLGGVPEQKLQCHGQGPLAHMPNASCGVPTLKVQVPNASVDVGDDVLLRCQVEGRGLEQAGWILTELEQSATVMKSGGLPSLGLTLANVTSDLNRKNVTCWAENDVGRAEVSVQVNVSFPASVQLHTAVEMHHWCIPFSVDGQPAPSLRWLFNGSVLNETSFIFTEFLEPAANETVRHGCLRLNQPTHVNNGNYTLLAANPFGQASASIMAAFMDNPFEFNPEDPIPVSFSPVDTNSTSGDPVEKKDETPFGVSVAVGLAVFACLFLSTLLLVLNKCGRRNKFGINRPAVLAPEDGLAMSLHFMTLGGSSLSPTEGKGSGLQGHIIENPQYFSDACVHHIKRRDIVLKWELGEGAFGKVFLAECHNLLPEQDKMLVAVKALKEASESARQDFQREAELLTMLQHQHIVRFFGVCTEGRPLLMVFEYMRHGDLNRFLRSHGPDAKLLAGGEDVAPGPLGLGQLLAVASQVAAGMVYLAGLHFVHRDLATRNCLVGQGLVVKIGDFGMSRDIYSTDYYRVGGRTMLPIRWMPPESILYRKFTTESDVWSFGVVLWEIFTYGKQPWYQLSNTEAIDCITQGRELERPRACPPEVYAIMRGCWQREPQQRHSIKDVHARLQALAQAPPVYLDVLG

Turning to `COc1ccccc1Nc1ncc(Cc2c[nH]c3ncc(Cl)cc23)cn1` [Compound P-3016, [5-(5-Chloro-1H-pyrrolo[2,3-b]pyridin-3-ylmethyl)-pyrimidin-2-yl]-(2-methoxy-phenyl)-amine], the 50% inhibitory concentration (IC50) on Flt-3 kinase was less than 0.1 µM; at TrkA kinase, greater than 1 µM.

Regarding `CCOc1ncnc2[nH]cc(Cc3ccc(Nc4cnn(CC)c4)nc3F)c12` [Compound P-4012, [5-(4-Ethoxy-7H-pyrrolo[2,3-d]pyrimidin-5-ylmethyl)-6-fluoro-pyridin-2-yl]-(1-ethyl-1H-pyrazol-4-yl)-amine], the IC50 at Flt-3 kinase is less than 1 µM; at TrkA kinase it was less than 0.1 µM.

`COc1ccc(Nc2ncc(Cc3c[nH]c4ncc(C)cc34)cn2)cc1` [Compound P-3021, (4-Methoxy-phenyl)-[5-(5-methyl-1H-pyrrolo[2,3-b]pyridin-3-ylmethyl)-pyrimidin-2-yl]-amine]: the values for the half-maximal inhibitory concentration (IC50) on Flt-3 kinase and at TrkA kinase were less than 0.01 µM and less than 0.1 µM, respectively.

As for `COc1ncnc2[nH]cc(Cc3ccc(Nc4ccc(C)nc4)nc3F)c12` [Compound P-4010, [6-Fluoro-5-(4-methoxy-7H-pyrrolo[2,3-d]pyrimidin-5-ylmethyl)-pyridin-2-yl]-(6-methyl-pyridin-3-yl)-amine], the IC50 on Flt-3 kinase and at TrkA kinase was less than 1 µM each time.

With `Cc1ccc(Nc2ccc(C(=O)c3c[nH]c4ncc(Cl)cc34)c(F)n2)cn1` [Compound P-3044, (5-Chloro-1H-pyrrolo[2,3-b]pyridin-3-yl)-[2-fluoro-6-(6-methyl-pyridin-3-ylamino)-pyridin-3-yl]-methanone], the results for the IC50 at Flt-3 kinase and on TrkA kinase were less than 1 µM and less than 0.1 µM, respectively.

`Cc1ccc(Nc2ccc(Cc3c[nH]c4ncnc(C5CC5)c34)c(F)n2)cn1` [Compound P-4030, [5-(4-Cyclopropyl-7H-pyrrolo[2,3-d]pyrimidin-5-ylmethyl)-6-fluoro-pyridin-2-yl]-(6-methyl-pyridin-3-yl)-amine]: the concentration for half-maximal inhibition (IC50) at Flt-3 kinase was less than 1 µM; on TrkA kinase, less than 0.1 µM.

Consider `CCOc1ccc(Nc2ccc(Cc3c[nH]c4ncnc(C)c34)c(F)n2)cn1` [Compound P-4006, (6-Ethoxy-pyridin-3-yl)-[6-fluoro-5-(4-methyl-7H-pyrrolo[2,3-d]pyrimidin-5-ylmethyl)-pyridin-2-yl]-amine], for which the half-maximal inhibitory concentration (IC50) at Flt-3 kinase and on TrkA kinase was less than 0.1 µM throughout.

As for `CCc1ccc(Nc2ccc(Cc3c[nH]c4ncnc(OC)c34)c(F)n2)cn1` [Compound P-4007, (6-Ethyl-pyridin-3-yl)-[6-fluoro-5-(4-methoxy-7H-pyrrolo[2,3-d]pyrimidin-5-ylmethyl)-pyridin-2-yl]-amine], the half-inhibitory concentration (IC50) is less than 0.1 µM at Flt-3 kinase and less than 0.01 µM at TrkA kinase.

`Cc1cnc2[nH]cc(Cc3cnc(Nc4ccc(C(F)(F)F)nc4)nc3)c2c1` [Compound P-3018, [5-(5-Methyl-1H-pyrrolo[2,3-b]pyridin-3-ylmethyl)-pyrimidin-2-yl]-(6-trifluoromethyl-pyridin-3-yl)-amine]: the values for the IC50 on Flt-3 kinase and at TrkA kinase were less than 0.01 µM and less than 1 µM, respectively.

With `CCc1ccc(Nc2ccc(Cc3c[nH]c4ncnc(OCCOC)c34)c(F)n2)cn1` [Compound P-4016, (6-Ethyl-pyridin-3-yl)-{6-fluoro-5-[4-(2-methoxy-ethoxy)-7H-pyrrolo[2,3-d]pyrimidin-5-ylmethyl]-pyridin-2-yl}-amine], the IC50 on Flt-3 kinase and at TrkA kinase was less than 0.01 µM each time.

`CCn1ccc(Nc2ncc(Cc3c[nH]c4ncc(C)cc34)cn2)n1` [Compound P-3035, (1-Ethyl-1H-pyrazol-3-yl)-[5-(5-methyl-1H-pyrrolo[2,3-b]pyridin-3-ylmethyl)-pyrimidin-2-yl]-amine]: the IC50 at Flt-3 kinase was less than 0.1 µM; on TrkA kinase, less than 1 µM.

With `COc1ccc(Nc2ccc(Cc3c[nH]c4ncc(C)cc34)c(F)n2)cn1` [Compound P-3019, [6-fluoro-5-(5-methyl-1H-pyrrolo[2,3-b]pyridin-3-ylmethyl)-pyridin-2-yl]-(6-methoxy-pyridin-3-yl)-amine], the IC50 is less than 1 µM at Flt-3 kinase and less than 0.1 µM on TrkA kinase.

As to `COCCOc1ncnc2[nH]cc(Cc3ccc(Nc4ccc(C)nc4)nc3F)c12` [Compound P-4015, {6-Fluoro-5-[4-(2-methoxy-ethoxy)-7H-pyrrolo[2,3-d]pyrimidin-5-ylmethyl]-pyridin-2-yl}-(6-methyl-pyridin-3-yl)-amine], the IC50 at Flt-3 kinase and at TrkA kinase was greater than 1 µM throughout.

Take `COc1ncnc2[nH]cc(Cc3ccc(Nc4ccc(Cl)nc4)nc3F)c12` [Compound P-4003, (6-Chloro-pyridin-3-yl)-[6-fluoro-5-(4-methoxy-7H-pyrrolo[2,3-d]pyrimidin-5-ylmethyl)-pyridin-2-yl]-amine]: the IC50 at Flt-3 kinase and on TrkA kinase was less than 1 µM in each case.

In the case of `CCOc1ncnc2[nH]cc(Cc3ccc(Nc4cccnc4)nc3F)c12` [Compound P-4021, [5-(4-Ethoxy-7H-pyrrolo[2,3-d]pyrimidin-5-ylmethyl)-6-fluoro-pyridin-2-yl]-pyridin-3-yl-amine], the values for the half-maximal inhibitory concentration (IC50) on Flt-3 kinase and at TrkA kinase were greater than 1 µM and less than 1 µM, respectively.

Turning to `CCOc1ccc(Nc2ccc(C(=O)c3c[nH]c4ncc(C)cc34)c(F)n2)cn1` [Compound P-3045, [6-(6-ethoxy-pyridin-3-ylamino)-2-fluoro-pyridin-3-yl]-(5-methyl-1H-pyrrolo[2,3-b]pyridin-3-yl)-methanone], the 50% inhibitory concentration (IC50) on Flt-3 kinase was less than 0.1 µM; at TrkA kinase, less than 0.01 µM.

In the case of `Cc1cnc2[nH]cc(C(=O)c3ccc(Nc4ccc(C)nc4)nc3F)c2c1` [Compound P-3043, [2-Fluoro-6-(6-methyl-pyridin-3-ylamino)-pyridin-3-yl]-(5-methyl-1H-pyrrolo[2,3-b]pyridin-3-yl)-methanone], the IC50 was less than 1 µM on Flt-3 kinase and less than 0.1 µM on TrkA kinase.

Consider `CCOc1ccc(Nc2ccc(Cc3c[nH]c4ncnc(C5CC5)c34)c(F)n2)cn1` [Compound P-4026, [5-(4-Cyclopropyl-7H-pyrrolo[2,3-d]pyrimidin-5-ylmethyl)-6-fluoro-pyridin-2-yl]-(6-ethoxy-pyridin-3-yl)-amine], for which the results for the half-maximal inhibitory concentration (IC50) at Flt-3 kinase and at TrkA kinase were less than 0.1 µM and less than 0.01 µM, respectively.

For the molecule `COc1ncnc2[nH]cc(Cc3ccc(Nc4ccc(C5CC5)nc4)nc3F)c12` [Compound P-4004, (6-Cyclopropyl-pyridin-3-yl)-[6-fluoro-5-(4-methoxy-7H-pyrrolo[2,3-d]pyrimidin-5-ylmethyl)-pyridin-2-yl]-amine], the IC50 is less than 0.01 µM at Flt-3 kinase and less than 0.1 µM at TrkA kinase.

For the molecule `Cc1ccc(Nc2ccc(Cc3c[nH]c4ncc(Cl)cc34)c(F)n2)cn1` [Compound P-3042, [5-(5-Chloro-1H-pyrrolo[2,3-b]pyridin-3-ylmethyl)-6-fluoro-pyridin-2-yl]-(6-methyl-pyridin-3-yl)-amine], the IC50 on Flt-3 kinase was less than 1 µM; at TrkA kinase, less than 0.1 µM.

With `CCOc1ncnc2[nH]cc(Cc3ccc(Nc4ccc(Br)nc4)nc3F)c12` [Compound P-4020, (6-Bromo-pyridin-3-yl)-[5-(4-ethoxy-7H-pyrrolo[2,3-d]pyrimidin-5-ylmethyl)-6-fluoro-pyridin-2-yl]-amine], the IC50 was less than 0.1 µM on Flt-3 kinase and less than 0.01 µM at TrkA kinase.

For `FC1(F)CCC(Nc2ncc(Cc3c[nH]c4ncc(Cl)cc34)cn2)CC1` [Compound P-3004], the IC50 at Flt-3 kinase is greater than 1 µM.

(Values after patent US8901118B2, “Compounds and methods for kinase modulation, and indications therefor” (Plexxikon Inc., priority 2010, dated 2014).)
